Source: patent US20200009247A1, “DRUG COMBINATIONS” (ASTEX PHARMACEUTICALS, INC., priority 2013, published 2020)
In brackets after ≈: the same amount, converted by molar mass. Where two headings read alike, the source gives them in different places.

How the values were obtained:
[1] = system: DNA methylation (CMV-EE210 cell line, silenced GFP transgene); test: cell-based green fluorescent protein (GFP) assay for demethylating activity; details: concentration at which GFP expression level is reduced from g3 to g1/2; read-out: GFP50
Method: The demethylating activity of the compounds was tested in a cell-based green fluorescent protein (GFP) assay. In the assay, a decrease in methylation resulting from exposure to a methylation inhibitor leads to GFP expression, and is readily scored.
The CMV-EE210 cell line containing the epigenetically silenced GFP transgene was used to assay for reactivation of GFP expression by flow cytometry. CMV-EE210 was made by transfecting NIH 3T3 cells with the pTR-UF/UF1/UF2 plasmid, which contained pBS(+) (Stratagene, Inc.) with a cytomegalovirus (CMV) promoter driving a humanized GFP gene adapted for expression in mammalian cells. After transfection, high-level GFP expressing cells were initially selected by FACS analysis and sorting using a MoFlo cytometer (Cytomation, Inc.).
Decitabine, a potent inhibitor of mammalian DNMT1, was used as a positive control. […] Cells were then seeded to 30% confluence (˜5000 cell/well) in a 96-well plate containing the test compounds, and grown for three days in at 37 ° C. in 5% CO2.
The plates were examined under a fluorescent microscope using a 450-490 excitation filter (13 filter cube, Leica, Deerfield Ill.). Wells were scored gl positive, g2 positive, or g3 if GFP was expressed in 10%, 30%, >75% of viable cells, respectively.
Table 1 provides the results of the test for decitabine and the test compounds as DNA methylation inhibitors. GFP50 is the concentration of an inhibitor at which the Green Fluorescent Protein (GFP) expression level is reduced from g3 to g1/2.

[2] = single dose pharmacokinetics in monkeys; details: single dose 10 mg/kg
[3] = system: murine mammary carcinoma cells TS/A; test: anti-tumor effect in TS/A murine breast cancer model (Example 6); format: in vivo, Balb/c mice; details: day 26 vs control mice; SGI-110 3 mg/kg SQ QDx5 days 1-5; anti-CTLA-4 mAb 100 μg at days 8, 11, 14 where combined
Method: TS/A is a murine mammary carcinoma originated from a moderately differentiated, weakly immunogenic mammary adenocarcinoma spontaneously arising in a 20-mo-old female BALB/c mouse.
The anti-mouse CTLA-4 was the CTLA-4 mAb 9H10, obtained from BioXCell (West Lebanon, N.H., USA), dosed at 100 μg/mouse in 200 μl (ip).
Balb/c mice (6/group) were injected SQ in the flank region with murine mammary carcinoma cells TS/A (2×10^5).
Control mice were injected with diluent for reconstitution. The effectiveness and tolerability of treatments was evaluated by tumor volume and body weight measurements, respectively.

solubility = format: physicochemical
Description: The good chemical stability taken together with the excellent solubility identified the glycol/glycerin/ethanol (65:25:10) system as a formulation for use in animal experiments.

[4] = stability in solvent formulations by HPLC; format: physicochemical
Method: The stability of a compound of the invention in various formulations under various storage conditions was investigated. Stability was determined by HPLC at the designated time intervals.

LINE-1 DNA methylation = LINE-1 DNA methylation in blood samples; format: in vivo, cynomolgus monkeys; details: monkey blood samples; repeat dose 3 mg/kg; until day 22; p<0.05
Method: FIG. 3 illustrates the decrease in LINE1 methylation levels observed in blood samples drawn from cynomolgus monkeys on various days (D) after pretest.
In a repeat dose study, monkeys were dosed 3× weekly subcutaneously (3 mg/kg). […] (FIGS. 1 and 2.) Pharmacodynamic properties (not shown) were monitored and were acceptable. Blood samples were drawn periodically to assay LINE-1 DNA methylation.

Question: Which EC50 [1] does the source give for `Nc1ncn([C@H]2C[C@H](O)[C@@H](CO)O2)c(=O)n1` [Decitabine, 5-aza-2′-deoxycytidine] here?
Answer: Its EC50 is 500 nM.

Question: And the AUC [2]?
Answer: The AUC was 340 ng·h/mL.

Question: What about the Cmax [2] of the same compound?
Answer: The Cmax was 160 ng/mL.

Question: With `Nc1ncn([C@H]2C[C@H](OP(=O)(O)OC[C@H]3O[C@@H](n4cnc5c(=O)[nH]c(N)nc54)C[C@@H]3O)[C@@H](CO)O2)c(=O)n1` [SGI-110] as the compound, how does the tumor growth inhibition [3] read?
Answer: The tumor growth inhibition was 62.9%.

Question: What about the solubility (solubility; propylene glycol/glycerin/ethanol (65:25:10), organic solvent or mixture, read-out: maximum solubility) of the same compound?
Answer: The solubility was 130 to 150 mg/mL (≈ 233 to 269 mM).

Question: And the solubility (solubility; water, aqueous, read-out: aqueous solubility)?
Answer: Its solubility is 20 mg/mL (≈ 35.9 mM).

Question: What about the AUC [2] of the same compound?
Answer: The AUC was 1,469 ng·hr/mL.

Question: And the “% decomposition per hour” value ([4]; DMSO/water (1:1, w/w), 25° C./60% relative humidity)?
Answer: Its value is 0.72.

Question: What about the Percent compound detected ([4]; DMSO/water (1:1, w/w), 25° C./60% relative humidity, 5 hours) of the same compound?
Answer: The Percent compound detected was 90.1%.

Question: And the Percent compound detected ([4]; DMSO/water (1:1, w/w), 25° C./60% relative humidity, time point 0)?
Answer: The Percent compound detected was 93.7%.

Question: What about the “% decomposition per hour” value ([4]; DMSO/water (3:1, w/w), 25° C./60% relative humidity) of the same compound?
Answer: The value was 0.10.

Question: And the Percent compound detected ([4]; DMSO/water (3:1, w/w), 25° C./60% relative humidity, 24 hours)?
Answer: Its Percent compound detected is 94.2%.

Question: And the Percent compound detected ([4]; DMSO/water (3:1, w/w), 25° C./60% relative humidity, time point 0)?
Answer: Its Percent compound detected is 96.6%.

Question: What about the “% decomposition per hour” value ([4]; Propylene Glycol/Glycerin/Ethanol (65:25:10, w/w/w), 2-8° C.) of the same compound?
Answer: Its value is 0.00032.

Question: What about the Percent compound detected ([4]; Propylene Glycol/Glycerin/Ethanol (65:25:10, w/w/w), 2-8° C., 3 months) of the same compound?
Answer: Its Percent compound detected is 95.1%.

Question: What about the Percent compound detected ([4]; Propylene Glycol/Glycerin/Ethanol (65:25:10, w/w/w), 2-8° C., time point 0) of the same compound?
Answer: The Percent compound detected was 95.8%.

Question: And the “% decomposition per hour” value ([4]; Propylene Glycol/Glycerin/Ethanol (65:25:10, w/w/w), 25° C./60% relative humidity)?
Answer: The value was 0.013.

Question: And the Percent compound detected ([4]; Propylene Glycol/Glycerin/Ethanol (65:25:10, w/w/w), 25° C./60% relative humidity, 3 months)?
Answer: The Percent compound detected was 67.6%.

Question: And the Percent compound detected ([4]; Propylene Glycol/Glycerin/Ethanol (65:25:10, w/w/w), 25° C./60% relative humidity, time point 0)?
Answer: The Percent compound detected was 95.8%.

Question: What about the “% decomposition per hour” value ([4]; Propylene glycol/Glycerin (70:30, v/v), room temperature) of the same compound?
Answer: The value was 0.021.

Question: What about the Percent compound detected ([4]; Propylene glycol/Glycerin (70:30, v/v), room temperature, 24 hours) of the same compound?
Answer: The Percent compound detected was 96.3%.

Question: What about the Percent compound detected ([4]; Propylene glycol/Glycerin (70:30, v/v), room temperature, time point 0) of the same compound?
Answer: The Percent compound detected was 96.8%.

Question: And the “stability in anhydrous DMSO” value ([4]; anhydrous DMSO)?
Answer: The value was “stable”.

Question: What about the improvement in stability ([4]; combined effects of cooling plus addition of ethanol to the propylene glycol/glycerin system) of the same compound?
Answer: Its improvement in stability is 66 fold.

Question: What about the improvement in stability ([4]; propylene glycol/glycerin/ethanol (65:25:10), changing from warmer to colder storage conditions) of the same compound?
Answer: The improvement in stability was 40 fold.

Question: What about the “% decomposition per hour” value ([4]; water, pH 7.0, 2-8° C.) of the same compound?
Answer: Its value is 0.14.

Question: And the Percent compound detected ([4]; water, pH 7.0, 2-8° C., 5 hours)?
Answer: Its Percent compound detected is 95.1%.

Question: And the Percent compound detected ([4]; water, pH 7.0, 2-8° C., time point 0)?
Answer: Its Percent compound detected is 95.8%.

Question: What about the “% decomposition per hour” value ([4]; water, pH 7.0, room temperature) of the same compound?
Answer: The value was 1.1.

Question: What about the Percent compound detected ([4]; water, pH 7.0, room temperature, 5 hours) of the same compound?
Answer: Its Percent compound detected is 90.4%.

Question: What about the Percent compound detected ([4]; water, pH 7.0, room temperature, time point 0) of the same compound?
Answer: Its Percent compound detected is 95.8%.

Question: And the “LINE-1 DNA methylation vs level prior to initial dosing” value (LINE-1 DNA methylation)?
Answer: Its value is “Decreases”.

Question: With `Nc1ncn([C@H]2CC(O)[C@@H](COP(=O)(O)OC3C[C@H](n4cnc5c(=O)[nH]c(N)nc54)O[C@@H]3CO)O2)c(=O)n1` (stereo partly shown) as the compound, how does the EC50 [1] read?
Answer: Its EC50 is 700 nM.

Question: For `Nc1ncn([C@H]2CC(OP(=O)(O)OC[C@H]3O[C@@H](n4cnc5c(=O)[nH]c(N)nc54)CC3O)[C@@H](CO)O2)c(=O)n1` (stereo partly shown), which EC50 [1] is on record?
Answer: The EC50 was 400 nM.
